Assay results taken from patent US20140163026A1, “8-ETHYL-6-(ARYL)PYRIDO[2,3-D]PYRIMIDIN-7(8H)-ONES FOR THE TREATMENT OF NERVOUS SYSTEM DISORDERS AND CANCER” (Afraxis Holdings, Inc., priority 2011, published 2014).

Key:
Type in all cases: biochemical
PAK3 = PAK3 (Homo sapiens, UniProt O75914); assay: In vitro PAK inhibition assay (SelectScreen, Ser/Thr 20 peptide)
Protocol: (§1) Compounds are screened in 1% DMSO (final) in the well. For 10 point titrations, 3-fold serial dilutions are conducted.
(§2) All Peptide/Kinase Mixtures are diluted to a 2× working concentration in the appropriate Kinase Buffer
The 2×PAK3/Ser/Thr 20 mixture is prepared in 50 mM HEPES pH 7.5, 0.01% BRIJ-35, 10 mM MgCl2, 1 mM EGTA.
(§3) This control yields 100% cleaved peptide in the Development Reaction.
(§4) The 100% Phosphorylation Control, which consists of a synthetically phosphorylated peptide of the same sequence as the peptide substrate, is designed to allow for the calculation of percent phosphorylation.
(§5) This control is designed to produce a 10-50%* phosphorylated peptide in the Kinase Reaction.
(§6) A known inhibitor control standard curve, 10 point titration, is run for each individual kinase on the same plate as the kinase to ensure the kinase is inhibited within an expected IC50 range previously determined.
(§7) Add the following solutions to a well in a 384-well plate: • 2.5 μL of 4× Test Compound OR (100 nL 100× Test Compound plus 2.4 μL kinase buffer) • 5 μL of 2× Peptide/Kinase (PAK) Mixture • 2.5 μL of 4×ATP Solution • 2. Shake the plate for 30-seconds • 3. Incubate the PAK Kinase Reaction at room temperature for 60-minutes • 4. Add 5 μL of Development Reagent Solution to each well • 5. Shake the plate for 30-seconds • 6. Incubate the Development Reaction for 60-minutes • 7. Determine the fluorescence using a fluorescence plate reader • 8. Analyze the fluorescence data
(§8) SelectScreen® Kinase Profiling Service uses XLfit from IDBS.
(§9) The representative IC50 value with a known inhibitor for each kinase was determined at the ATP bin nearest to the ATP Km app.

PAK2 (PAK65) = PAK2 (PAK65) (Homo sapiens, UniProt Q13177); assay: as above
Chain of PAK2 (PAK65) (Q13177 whole entry): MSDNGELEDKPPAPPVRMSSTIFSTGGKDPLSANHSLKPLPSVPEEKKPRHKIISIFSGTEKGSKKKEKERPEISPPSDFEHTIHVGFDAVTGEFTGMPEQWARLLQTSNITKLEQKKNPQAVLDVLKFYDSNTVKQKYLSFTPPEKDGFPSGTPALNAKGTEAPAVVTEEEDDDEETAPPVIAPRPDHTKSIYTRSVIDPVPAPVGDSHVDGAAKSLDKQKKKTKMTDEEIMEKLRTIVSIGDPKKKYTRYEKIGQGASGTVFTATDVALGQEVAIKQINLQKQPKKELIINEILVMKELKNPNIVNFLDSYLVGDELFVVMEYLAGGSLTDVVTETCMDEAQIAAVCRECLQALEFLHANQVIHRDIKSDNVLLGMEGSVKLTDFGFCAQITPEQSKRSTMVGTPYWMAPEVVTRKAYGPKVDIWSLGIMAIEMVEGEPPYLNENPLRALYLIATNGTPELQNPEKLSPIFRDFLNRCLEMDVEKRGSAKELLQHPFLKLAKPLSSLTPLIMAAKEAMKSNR
Protocol: as §1, §2
The 2×PAK2 (PAK65)/Ser/Thr 20 mixture is prepared in 50 mM HEPES pH 7.5, 0.01% BRIJ-35, 10 mM MgCl2, 1 mM EGTA. The final 10 μL Kinase Reaction consists of 0.29-6 ng PAK2 (PAK65) and 2 μM Ser/Thr 20 in 50 mM HEPES pH 7.5, 0.01% BRIJ-35, 10 mM MgCl2, 1 mM EGTA.
as §3, §4, §5, §6, §7, §8, §9

PAK1 = PAK1 (Homo sapiens, UniProt Q13153); assay: In vitro PAK inhibition assay (SelectScreen, Ser/Thr 19 peptide)
Chain of PAK1 (Q13153 whole entry): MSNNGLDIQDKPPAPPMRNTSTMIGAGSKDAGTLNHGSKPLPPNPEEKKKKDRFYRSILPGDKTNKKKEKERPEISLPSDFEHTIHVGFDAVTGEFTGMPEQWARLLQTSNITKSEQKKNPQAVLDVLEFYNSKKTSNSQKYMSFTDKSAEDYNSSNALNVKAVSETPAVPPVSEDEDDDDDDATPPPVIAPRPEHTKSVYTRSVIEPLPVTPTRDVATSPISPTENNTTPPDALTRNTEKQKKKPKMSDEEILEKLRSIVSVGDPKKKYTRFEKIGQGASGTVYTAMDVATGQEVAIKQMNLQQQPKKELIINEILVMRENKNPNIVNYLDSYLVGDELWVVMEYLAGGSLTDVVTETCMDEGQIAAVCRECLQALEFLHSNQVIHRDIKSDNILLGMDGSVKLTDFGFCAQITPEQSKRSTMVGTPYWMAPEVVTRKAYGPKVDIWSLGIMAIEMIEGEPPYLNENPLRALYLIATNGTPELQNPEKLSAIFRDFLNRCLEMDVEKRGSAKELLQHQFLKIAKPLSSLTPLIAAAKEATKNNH
Protocol: as §1, §2
The 2×PAK1/Ser/Thr 19 mixture is prepared in 50 mM HEPES pH 7.5, 0.01% BRIJ-35, 10 mM MgCl2, 1 mM EGTA.
as §3, §4, §5, §6, §7, §8, §9

PAK4 = PAK4 (Homo sapiens, UniProt O96013); assay: In vitro PAK inhibition assay (SelectScreen, Ser/Thr 20 peptide)
Chain of PAK4 (O96013 whole entry): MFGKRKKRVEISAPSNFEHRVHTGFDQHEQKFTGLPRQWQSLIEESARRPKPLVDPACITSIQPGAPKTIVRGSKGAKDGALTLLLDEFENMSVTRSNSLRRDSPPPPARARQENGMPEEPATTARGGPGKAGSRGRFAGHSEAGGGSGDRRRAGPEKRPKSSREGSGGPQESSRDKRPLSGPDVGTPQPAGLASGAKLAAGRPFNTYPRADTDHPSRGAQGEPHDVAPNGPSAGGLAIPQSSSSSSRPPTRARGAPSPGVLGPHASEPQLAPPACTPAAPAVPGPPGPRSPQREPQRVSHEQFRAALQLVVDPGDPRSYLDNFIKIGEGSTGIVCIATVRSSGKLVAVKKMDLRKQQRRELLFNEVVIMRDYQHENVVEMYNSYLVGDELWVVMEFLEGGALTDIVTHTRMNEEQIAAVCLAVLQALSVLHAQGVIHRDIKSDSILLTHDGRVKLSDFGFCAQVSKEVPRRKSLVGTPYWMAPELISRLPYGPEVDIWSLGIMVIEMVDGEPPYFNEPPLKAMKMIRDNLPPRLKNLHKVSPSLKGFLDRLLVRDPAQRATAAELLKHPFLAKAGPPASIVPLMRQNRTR
Protocol: as §1, §2
The 2×PAK4/Ser/Thr 20 mixture is prepared in 50 mM HEPES pH 7.5, 0.01% BRIJ-35, 10 mM MgCl2, 1 mM EGTA. The final 10 μL Kinase Reaction consists of 0.1-0.75 ng PAK4 and 2 μM Ser/Thr 20 in 50 mM HEPES pH 7.5, 0.01% BRIJ-35, 10 mM MgCl2, 1 mM EGTA. After the 1 hour Kinase Reaction incubation, 5 μL of a 1:256 dilution of Development Reagent A is added.
as §3, §4
The minimum Emission Ratio in a screen is established by the 0% Inhibition Control, which contains active kinase. This control is designed to produce a 10-50%* phosphorylated peptide in the Kinase Reaction.
as §6
as §7, with “Bar-coded Corning, low volume NBS, black 384-well plate (Corning Cat. #3676) • 1. Add the” for “Add the”
SelectScreen® Kinase Profiling Service uses XLfit from IDBS. The dose response curve is curve fit to model number 205 (sigmoidal dose-response model).
The table below provides specifications and data around each kinase. The representative IC50 value with a known inhibitor for each kinase was determined at the ATP bin nearest to the ATP Km app.

Chain of PAK3 (O75914 whole entry): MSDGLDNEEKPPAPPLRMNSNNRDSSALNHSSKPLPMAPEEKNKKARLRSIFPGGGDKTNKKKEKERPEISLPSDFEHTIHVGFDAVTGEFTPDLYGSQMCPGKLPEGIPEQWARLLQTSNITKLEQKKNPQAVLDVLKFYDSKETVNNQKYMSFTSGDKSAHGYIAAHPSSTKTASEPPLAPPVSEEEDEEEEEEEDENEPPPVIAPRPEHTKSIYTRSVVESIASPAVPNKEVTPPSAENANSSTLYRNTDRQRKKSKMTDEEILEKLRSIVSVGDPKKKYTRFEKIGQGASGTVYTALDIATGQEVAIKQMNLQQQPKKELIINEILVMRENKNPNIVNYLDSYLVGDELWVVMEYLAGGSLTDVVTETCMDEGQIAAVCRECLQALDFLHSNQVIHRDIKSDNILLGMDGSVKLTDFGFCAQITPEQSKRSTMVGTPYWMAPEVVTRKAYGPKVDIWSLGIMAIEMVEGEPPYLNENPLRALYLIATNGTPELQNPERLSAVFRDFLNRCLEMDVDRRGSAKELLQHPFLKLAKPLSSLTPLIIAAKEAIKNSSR

SMILES	IC50 (PAK3)	IC50 (PAK2 (PAK65))	IC50 (PAK1)	IC50 (PAK4)
CCn1c(=O)c(-c2ccc(-c3cccs3)cc2Cl)cc2cnc(Nc3ccc(N4CCN(C)CC4)cc3)nc21	0.05 to 0.5 µM	< 0.05 µM	< 0.05 µM	≥ 5 µM
CCn1c(=O)c(-c2ccc(C3CC3)cc2Cl)cc2cnc(Nc3ccc(N4CCN(C)CC4)cc3)nc21	0.05 to 0.5 µM	0.05 to 0.5 µM	0.05 to 0.5 µM	≥ 5 µM
CCn1c(=O)c(-c2ccc(C3CC3)cc2C2CC2)cc2cnc(Nc3ccc(N4CCN(C)CC4)cc3)nc21	0.5 to 5 µM	0.5 to 5 µM	0.5 to 5 µM	≥ 5 µM
CCn1c(=O)c(-c2ccc(-c3nccs3)cc2Cl)cc2cnc(Nc3ccc(N4CCN(C)CC4)cc3)nc21	< 0.05 µM	< 0.05 µM	< 0.05 µM	0.5 to 5 µM
CCn1c(=O)c(-c2ccc(-c3ccncc3)s2)cc2cnc(Nc3ccc(N4CCN(C)CC4)cc3)nc21	> 5 µM	> 5 µM	> 5 µM	≥ 5 µM
CCn1c(=O)c(-c2ccc(-c3ccon3)s2)cc2cnc(Nc3ccc(N4CCN(C)CC4)cc3)nc21	> 5 µM	> 5 µM	> 5 µM	≥ 5 µM
CCn1c(=O)c(-c2ccc(-c3cn[nH]c3)cc2Cl)cc2cnc(Nc3ccc(N4CCN(C)CC4)cc3)nc21	0.05 to 0.5 µM	0.05 to 0.5 µM	0.05 to 0.5 µM	≥ 5 µM
CCn1c(=O)c(-c2ccc(-c3cccnc3)cc2Cl)cc2cnc(Nc3ccc(N4CCNCC4)c(F)c3)nc21	< 0.05 µM	< 0.05 µM	< 0.05 µM	0.5 to 5 µM
CCOC(=O)c1nc(-c2ccc(-c3cc4cnc(Nc5ccc(N6CCN(C)CC6)cc5)nc4n(CC)c3=O)c(Cl)c2)no1	0.05 to 0.5 µM	0.05 to 0.5 µM	< 0.05 µM	≥ 5 µM
CCn1c(=O)c(-c2ccc(-c3cncnc3)cc2Cl)cc2cnc(Nc3ccc(N4CCNCC4)c(F)c3)nc21	< 0.05 µM	< 0.05 µM	< 0.05 µM	0.5 to 5 µM
CCn1c(=O)c(-c2ccc(-c3cncnc3)cc2Cl)cc2cnc(Nc3ccc(N4CCNCC4)cc3)nc21	< 0.05 µM	< 0.05 µM	< 0.05 µM	0.5 to 5 µM
CCn1c(=O)c(-c2ccc(-c3noc(C(F)(F)F)n3)cc2Cl)cc2cnc(Nc3ccc(N4CCN(C)CC4)cc3)nc21	0.05 to 0.5 µM	< 0.05 µM	< 0.05 µM	≥ 5 µM
CCN1CCN(c2ccc(Nc3ncc4cc(-c5ccc(-c6cncnc6)cc5Cl)c(=O)n(CC)c4n3)cc2F)CC1	< 0.05 µM	< 0.05 µM	< 0.05 µM	0.5 to 5 µM
CCn1c(=O)c(-c2ccc(-c3cccnc3)cc2Cl)cc2cnc(Nc3ccc(N4CCNCC4)cc3)nc21	< 0.05 µM	< 0.05 µM	< 0.05 µM	0.5 to 5 µM
CCn1c(=O)c(-c2ccc(-c3cccnc3)cc2Cl)cc2cnc(Nc3ccc(N4CCN(C)CC4)c(F)c3)nc21	< 0.05 µM	< 0.05 µM	< 0.05 µM	0.5 to 5 µM
CCn1c(=O)c(-c2ccc(-c3cncnc3)cc2Cl)cc2cnc(Nc3ccc(N4CCN(C)CC4)c(F)c3)nc21	< 0.05 µM	< 0.05 µM	< 0.05 µM	≥ 5 µM
CCn1c(=O)c(-c2ccc(-c3cncnc3)cc2Cl)cc2cnc(Nc3ccc(N4CCN(C(C)C)CC4)c(F)c3)nc21	< 0.05 µM	< 0.05 µM	< 0.05 µM	≥ 5 µM
CCn1c(=O)c(-c2ccc(-c3cncnc3)cc2Cl)cc2cnc(Nc3ccc(N4CCN(C(C)C)CC4)cc3)nc21	< 0.05 µM	< 0.05 µM	< 0.05 µM	0.5 to 5 µM
CCN1CCN(c2ccc(Nc3ncc4cc(-c5ccc(-c6cccnc6)cc5Cl)c(=O)n(CC)c4n3)cc2)CC1	< 0.05 µM	< 0.05 µM	< 0.05 µM	0.5 to 5 µM

SMILES	IC50 (PAK3)	IC50 (PAK2 (PAK65))	IC50 (PAK1)	IC50 (PAK4)
CCn1c(=O)c(-c2ccc(-c3cncs3)cc2Cl)cc2cnc(Nc3ccc(N4CCNCC4)cc3)nc21	< 0.05 µM	< 0.05 µM	< 0.05 µM	0.5 to 5 µM
CCn1c(=O)c(-c2ccc(-c3noc(C)n3)cc2Cl)cc2cnc(Nc3ccc(N4CCN(C)CC4)cc3)nc21	< 0.05 µM	< 0.05 µM	< 0.05 µM	0.5 to 5 µM
CCn1c(=O)c(-c2ccc(-c3cccnc3)cc2Cl)cc2cnc(Nc3ccc(N4CCN(C(C)C)CC4)c(F)c3)nc21	< 0.05 µM	< 0.05 µM	< 0.05 µM	≥ 5 µM
CCN1CCN(c2ccc(Nc3ncc4cc(-c5ccc(-c6cncnc6)cc5Cl)c(=O)n(CC)c4n3)cc2)CC1	< 0.05 µM	< 0.05 µM	< 0.05 µM	0.5 to 5 µM
CCn1c(=O)c(-c2ccc(-c3cncs3)cc2Cl)cc2cnc(Nc3ccc(N4CCNCC4)c(F)c3)nc21	< 0.05 µM	< 0.05 µM	< 0.05 µM	0.5 to 5 µM
CCn1c(=O)c(-c2ccc(-c3cncs3)cc2Cl)cc2cnc(Nc3ccc(N4CCN(C)CC4)c(F)c3)nc21	< 0.05 µM	< 0.05 µM	< 0.05 µM	≥ 5 µM
CCn1c(=O)c(-c2ccc(-c3cncs3)cc2Cl)cc2cnc(Nc3ccc(N4CCN(C(C)C)CC4)c(F)c3)nc21	< 0.05 µM	< 0.05 µM	< 0.05 µM	≥ 5 µM
CCn1c(=O)c(-c2ccc(-c3noc(C)n3)cc2Cl)cc2cnc(Nc3ccc(N4CCNCC4)cc3)nc21	< 0.05 µM	< 0.05 µM	< 0.05 µM	0.05 to 0.5 µM
CCn1c(=O)c(-c2ccc(-c3scnc3C)cc2Cl)cc2cnc(Nc3ccc(N4CCN(C)CC4)cc3)nc21	< 0.05 µM	< 0.05 µM	< 0.05 µM	≥ 5 µM
CCN1CCN(c2ccc(Nc3ncc4cc(-c5ccc(-c6cncs6)cc5Cl)c(=O)n(CC)c4n3)cc2F)CC1	0.05 to 0.5 µM	< 0.05 µM	< 0.05 µM	≥ 5 µM
CCn1c(=O)c(-c2ccc(-c3scnc3C)cc2Cl)cc2cnc(Nc3ccc(N4CCN(C(C)C)CC4)cc3)nc21	0.05 to 0.5 µM	< 0.05 µM	< 0.05 µM	≥ 5 µM
CCn1c(=O)c(-c2ccc(-c3ncccn3)cc2Cl)cc2cnc(Nc3ccc(N4CCN(C)CC4)cc3)nc21	< 0.05 µM	< 0.05 µM	< 0.05 µM	0.5 to 5 µM
CCn1c(=O)c(-c2ccc(-c3cnc(C)s3)cc2Cl)cc2cnc(Nc3ccc(N4CCN(C)CC4)cc3)nc21	< 0.05 µM	< 0.05 µM	< 0.05 µM	≥ 5 µM
CCn1c(=O)c(-c2ccc(-c3noc(C)n3)cc2Cl)cc2cnc(Nc3ccc(C4CCNCC4)cc3)nc21	< 0.05 µM	–	–	–
CCn1c(=O)c(-c2ccc(-c3cnc(C)s3)cc2Cl)cc2cnc(Nc3ccc(C4CCNCC4)cc3)nc21	0.05 to 0.5 µM	–	–	–
CCn1c(=O)c(-c2ccc(-c3cccnc3C)cc2Cl)cc2cnc(Nc3ccc(C4CCNCC4)cc3)nc21	0.05 to 0.5 µM	–	–	–
CCn1c(=O)c(-c2ccc(-c3ccnc(C)c3)cc2Cl)cc2cnc(Nc3ccc(C4CCNCC4)c(F)c3)nc21	–	0.05 to 0.5 µM	0.05 to 0.5 µM	–
CCn1c(=O)c(-c2ccc(-c3cccnc3F)cc2Cl)cc2cnc(Nc3ccc(C4CCNCC4)cc3)nc21	–	–	–	0.5 to 5 µM
